The text below walks through data of patent publication US9393244B2, “Increasing parkin activity by administering a deubiquitinating enzyme inhibitor” (Georgetown University, priority 2013, dated 2016).

Peptide text beside a SMILES is read from it. * marks the point of attachment. Cbz = O=C(OCc1ccccc1)*

The test system of one data set is USP10. The data set is described as follows: Western blot of STEN (soluble) extracts of M17 cells, endogenous USP10 level. The settings on record: M17 cells transfected with 3 μg lentiviral plasmids for 48 hr; FIG. 27A 2nd blot. It is filed as cell-based, human. The method, then: (§1) To further determine whether USP13 targets parkin, M17 cells were transfected with 3 μg lentiviral plasmids containing parkin, USP13 or different shRNA USP13 clones (FIG. 27A) for 48 hr. The expression level of the shRNAs was determined by routine stereology of the GFP and VS-tagged lentivirus to ensure equal expression of lentiviral plasmids. USP13 gene expression level is verified by PCR. Co-expression of USP13 and parkin led to an increase (134%) in parkin level compared to parkin alone (FIG. 27A, 1st blot, N=4), but shRNA expression reduced USP13 and parkin levels relative to actin (FIG. 27A). […] To ascertain that manipulation of USP13 expression affects protein clearance, the activity of the 20S proteasome activity was measured using chymotrypsin-like assays. Proteasome activity was inhibited after 2 hr treatment with 20 μM proteasome inhibitor MG132 compared to control (LacZ) or parkin alone (FIG. 27B, N=4).
On the technique in general: Immunoblotting shows a protein as a band on a membrane.

A further data set concerns the target T1, 20S proteasome (Homo sapiens, UniProt P28074).
T1 construct: endogenous in cells; host or cells: human M17 neuroblastoma cells
Description: Chymotrypsin-like proteasome activity assay in M17 cells. The format is cell-based. The settings on record: for effects of USP13 overexpression on proteasome activity: shRNA with USP13 overexpression. The method, then: as §1

Another data set concerns parkin. The data set is described as follows: Western blot of STEN (soluble) extracts of M17 cells, parkin level. The format is cell-based, human. The settings on record: M17 cells transfected with 3 μg lentiviral plasmids for 48 hr; FIG. 27A 3rd blot. Here is the method: as §1
For a further data set, the system named is USP13. Description: Western blot of STEN (soluble) extracts of M17 cells, USP13 level. The settings on record: M17 cells transfected with 3 μg lentiviral plasmids for 48 hr; FIG. 27A 1st blot. The format is cell-based, human. The method, then:
as §1

Regarding “E07: USP13 shRNA clone, 5′ TTTCCAGTGAAGTACACAG 3′ (SEQ ID NO: 1)”, the “effect on USP10 level” value with USP10 was “without any effects”.

Consider “F04: USP13 shRNA clone, 5′AACTTAGTCATCTGTGTGT 3′ (SEQ ID NO: 2)”, for which the “effect on USP10 level” value with USP10 was “without any effects”.

Turning to “F02: USP13 shRNA clone, 5′ TCTTGTAGACCCTGTCGCC 3′ (SEQ ID NO: 4)”, the “effect on USP10 level” value in the data set on USP10 was “without any effects”. In addition, the “effects of USP13 overexpression on proteasome activity” value with 20S proteasome is recorded as “completely reversed”.

With `CC(C)C[C@@H](C=O)NC(=O)[C@H](CC(C)C)NC(=O)[C@H](CC(C)C)NC(=O)OCc1ccccc1` [MG132, reference compound] (Cbz-Leu-Leu-Leu-aldehyde), the proteasome activity entry at 20S proteasome (2 hr treatment with 20 μM, compared to control (LacZ) or parkin alone, N=4) was “inhibited”; on 20S proteasome (cells co-expressing USP13 with parkin) it was “further inhibited”. In addition, on 20S proteasome (MG132 added to shRNA (F03, F02) conditions), the “effect on shRNA-mediated increase/reversal of proteasome activity” value is listed as “blocked these effects”.

Regarding “E08: USP13 shRNA clone, 5′ TATTCGTTGCTCGTAGTGC 3′(SEQ ID NO: 5)”, the “effect on USP10 level” value with USP10 is on record as “did not produce any significant effects”. Besides, the “effect on parkin level” value with parkin was “did not produce any significant effects”. Besides, the “effect on USP13 level” value in the data set with USP13 is given as “did not produce any significant effects”.

Turning to “F03: USP13 shRNA clone, 5′ TTTCTCGCAGGTCGCATCT 3′ (SEQ ID NO: 3)”, the “effect on USP10 level” value with USP10 is reported as “without any effects”. Besides, the “increase of proteasome activity” value with 20S proteasome (blocking USP13 with shRNA, compared to control) is 14%. Moreover, in the data set with 20S proteasome, the “effects of USP13 overexpression on proteasome activity” value is given as “completely reversed”.
